Assay results from the supplement of paper PMC10307832.

Columns and labels:
Assay in all cases: relative viability (nuclei count vs DMSO), 5 days (fraction); higher = more cells survive
Omipalisib + Trametinib = compound: COc1ncc(-c2ccc3nccc(-c4ccnnc4)c3c2)cc1NS(=O)(=O)c1ccc(F)cc1F [Omipalisib] + CC(=O)Nc1cccc(-n2c(=O)n(C3CC3)c(=O)c3c(Nc4ccc(I)cc4F)n(C)c(=O)c(C)c32)c1 [Trametinib] (partner 0.02 µM)
In short: (§1)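 Relative viability equals treated-well nuclei counts divided by vehicle-well nuclei counts. Counts came from 4× images of lung cancer cell lines grown in 1536-well plates for 5 days after pin-tool dosing on the day after seeding. Dosing used one drug alone or a fixed anchor-drug dose plus five library-drug doses (not always all listed) in √10 steps, and values are medians of duplicate plates.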

Omipalisib + OSI-027 = compound: COc1ncc(-c2ccc3nccc(-c4ccnnc4)c3c2)cc1NS(=O)(=O)c1ccc(F)cc1F [Omipalisib] + COc1cccc2cc(-c3nc([C@H]4CC[C@H](C(=O)O)CC4)n4ncnc(N)c34)[nH]c12 [OSI-027] (partner 0.5 µM)
In short: as §1

Omipalisib + Lapatinib = compound: COc1ncc(-c2ccc3nccc(-c4ccnnc4)c3c2)cc1NS(=O)(=O)c1ccc(F)cc1F [Omipalisib] + CS(=O)(=O)CCNCc1ccc(-c2ccc3ncnc(Nc4ccc(OCc5cccc(F)c5)c(Cl)c4)c3c2)o1 [Lapatinib] (partner 2 µM)
In short: as §1

Omipalisib + Dasatinib = compound: COc1ncc(-c2ccc3nccc(-c4ccnnc4)c3c2)cc1NS(=O)(=O)c1ccc(F)cc1F [Omipalisib] + Cc1nc(Nc2ncc(C(=O)Nc3c(C)cccc3Cl)s2)cc(N2CCN(CCO)CC2)n1 [Dasatinib] (partner 0.075 µM)
In short: as §1

Omipalisib + Decitabine = compound: COc1ncc(-c2ccc3nccc(-c4ccnnc4)c3c2)cc1NS(=O)(=O)c1ccc(F)cc1F [Omipalisib] + Nc1ncn([C@H]2C[C@H](O)[C@@H](CO)O2)c(=O)n1 [Decitabine] (partner 2 µM)
In short: as §1

Omipalisib + Vorinostat = compound: COc1ncc(-c2ccc3nccc(-c4ccnnc4)c3c2)cc1NS(=O)(=O)c1ccc(F)cc1F [Omipalisib] + O=C(CCCCCCC(=O)Nc1ccccc1)NO [Vorinostat] (partner 1 µM)
In short: as §1

Cell Line	relative viability (Omipalisib + Trametinib; first compound 0.0003 µM)	relative viability (Omipalisib + Trametinib; first compound 0.003 µM)	relative viability (Omipalisib + Trametinib; first compound 0.03 µM)	relative viability (Omipalisib + OSI-027; first compound 0.0003 µM)	relative viability (Omipalisib + OSI-027; first compound 0.003 µM)	relative viability (Omipalisib + OSI-027; first compound 0.03 µM)	relative viability (Omipalisib + Lapatinib; first compound 0.0003 µM)	relative viability (Omipalisib + Lapatinib; first compound 0.003 µM)	relative viability (Omipalisib + Lapatinib; first compound 0.03 µM)	relative viability (Omipalisib + Dasatinib; first compound 0.0003 µM)	relative viability (Omipalisib + Dasatinib; first compound 0.003 µM)	relative viability (Omipalisib + Dasatinib; first compound 0.03 µM)	relative viability (Omipalisib + Decitabine; first compound 0.0003 µM)	relative viability (Omipalisib + Decitabine; first compound 0.003 µM)	relative viability (Omipalisib + Decitabine; first compound 0.03 µM)	relative viability (Omipalisib + Vorinostat; first compound 0.0003 µM)	relative viability (Omipalisib + Vorinostat; first compound 0.003 µM)	relative viability (Omipalisib + Vorinostat; first compound 0.03 µM)
LCLC-97TM1	0.179	0.104	0.117	0.589	0.251	0.2	0.976	0.323	0.223	0.883	0.74	0.472	0.216	0.168	0.161	0.728	0.378	0.179
LK-2	0.595	0.4	0.201	0.212	0.13	0.173	0.698	0.502	0.306	0.231	0.151	0.169	0.235	0.201	0.147	0.276	0.18	0.154
LOU-NH91	0.788	0.666	0.593	0.705	0.58	0.503	0.708	0.53	0.511	0.521	0.381	0.355	0.857	0.747	0.665	1.02	0.679	0.582
LU99A	0.5	0.367	0.22	0.315	0.213	0.239	0.908	0.71	0.346	0.482	0.331	0.267	0.912	0.519	0.311	0.441	0.353	0.228
LXF-289	0.65	0.747	0.407	0.764	0.493	0.357	0.894	0.956	0.785	0.235	0.119	0.0562	0.365	0.371	0.281	0.771	0.905	0.561
NCI-H23	0.353	0.244	0.152	0.62	0.365	0.321	0.911	0.862	0.501	0.826	0.468	0.332	0.308	0.24	0.243	0.541	0.297	0.234
NCI-H322M	0.478	0.453	0.416	0.562	0.481	0.412	0.53	0.553	0.415	0.234	0.245	0.257	0.711	0.643	0.527	0.922	0.765	0.622
NCI-H358	0.136	0.115	0.107	0.595	0.473	0.16	0.388	0.367	0.325	0.127	0.11	0.131	0.199	0.174	0.141	0.573	0.546	0.272
NCI-H460	0.0973	0.0781	0.0544	0.661	0.258	0.0847	0.594	0.845	0.151	0.385	0.288	0.0813	0.41	0.286	0.247	0.653	0.617	0.0977
